Activity calls are given as the source filed them.
Experiments:
[1] = biological target: T1, Mannose-6-phosphate isomerase (Homo sapiens, UniProt P34949); test: human PMI inhibitors, high substrate, primary screen, biochemical, fluorescence intensity, high mannose 6-phosphate (AID 1220)
T1 sequence (P34949 whole entry): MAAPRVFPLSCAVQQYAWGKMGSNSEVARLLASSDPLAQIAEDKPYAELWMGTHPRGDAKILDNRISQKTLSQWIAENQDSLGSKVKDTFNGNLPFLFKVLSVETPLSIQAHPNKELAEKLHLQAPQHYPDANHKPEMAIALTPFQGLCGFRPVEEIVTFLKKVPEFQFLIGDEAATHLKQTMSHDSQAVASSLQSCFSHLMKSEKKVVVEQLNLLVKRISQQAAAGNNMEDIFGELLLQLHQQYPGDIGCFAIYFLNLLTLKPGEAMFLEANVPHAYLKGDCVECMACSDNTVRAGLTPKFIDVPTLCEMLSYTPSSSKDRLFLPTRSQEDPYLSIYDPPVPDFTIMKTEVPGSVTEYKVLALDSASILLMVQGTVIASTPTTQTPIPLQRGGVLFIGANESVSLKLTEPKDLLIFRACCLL

[2] = biological target: T1, Mannose-6-phosphate isomerase; test: PMI enzyme inhibitors, confirmation, biochemical, fluorescence intensity (AID 1535)
Phosphomannomutase 2 = biological target: T2, Phosphomannomutase 2 (Homo sapiens, UniProt O15305); test: Counter screen SAR assay for PMM2 inhibitors via a fluorescence intensity assay. [Related pubchem assays (depositor defined):AID1545, AID1574]
T2 sequence (O15305 whole entry): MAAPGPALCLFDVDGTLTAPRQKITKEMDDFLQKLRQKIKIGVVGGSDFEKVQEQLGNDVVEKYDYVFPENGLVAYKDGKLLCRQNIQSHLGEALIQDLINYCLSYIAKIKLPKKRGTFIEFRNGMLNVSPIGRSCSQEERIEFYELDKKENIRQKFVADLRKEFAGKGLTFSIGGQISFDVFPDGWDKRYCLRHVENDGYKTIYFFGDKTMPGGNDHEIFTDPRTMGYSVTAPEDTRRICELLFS

[3] = biological target: Eukaryotic translation initiation factor 4E (Mus musculus, UniProt P63073); test: eIF4E–eIF4G protein interaction inhibitors, dose response, biochemical, TR-FRET (AID 855); assay type: functional;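 also: potency for disrupting eIF4E binding to eIF4GI seen as loss of FRET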
Sequence of Eukaryotic translation initiation factor 4E (P63073 whole entry): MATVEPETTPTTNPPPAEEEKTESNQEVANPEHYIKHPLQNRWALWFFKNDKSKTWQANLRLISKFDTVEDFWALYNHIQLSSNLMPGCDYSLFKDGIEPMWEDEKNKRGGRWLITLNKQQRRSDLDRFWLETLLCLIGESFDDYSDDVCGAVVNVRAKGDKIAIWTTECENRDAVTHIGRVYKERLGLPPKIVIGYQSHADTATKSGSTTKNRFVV

[4] = biological target: Heat shock protein HSP 90-alpha (Homo sapiens, UniProt P07900); assay type: functional, organism-based
HeLa = test: HeLa cell cytotoxicity, dose response, cytotoxicity control for MITF activator project, CellTiter-Glo luminescence, cherry-pick samples (AID 540259); assay type: functional, cell-based; conditions: Homo sapiens
Hexokinase-1 = biological target: T3, Hexokinase-1 (Homo sapiens, UniProt P19367); test: SAR analysis of small molecule inhibitors of hexokinase domain containing I (HKDC1) in the hexokinase 1 selectivity assay. [Related pubchem assays (depositor defined):AID493160, AID493190]; assay type: functional
T3 sequence (P19367 whole entry): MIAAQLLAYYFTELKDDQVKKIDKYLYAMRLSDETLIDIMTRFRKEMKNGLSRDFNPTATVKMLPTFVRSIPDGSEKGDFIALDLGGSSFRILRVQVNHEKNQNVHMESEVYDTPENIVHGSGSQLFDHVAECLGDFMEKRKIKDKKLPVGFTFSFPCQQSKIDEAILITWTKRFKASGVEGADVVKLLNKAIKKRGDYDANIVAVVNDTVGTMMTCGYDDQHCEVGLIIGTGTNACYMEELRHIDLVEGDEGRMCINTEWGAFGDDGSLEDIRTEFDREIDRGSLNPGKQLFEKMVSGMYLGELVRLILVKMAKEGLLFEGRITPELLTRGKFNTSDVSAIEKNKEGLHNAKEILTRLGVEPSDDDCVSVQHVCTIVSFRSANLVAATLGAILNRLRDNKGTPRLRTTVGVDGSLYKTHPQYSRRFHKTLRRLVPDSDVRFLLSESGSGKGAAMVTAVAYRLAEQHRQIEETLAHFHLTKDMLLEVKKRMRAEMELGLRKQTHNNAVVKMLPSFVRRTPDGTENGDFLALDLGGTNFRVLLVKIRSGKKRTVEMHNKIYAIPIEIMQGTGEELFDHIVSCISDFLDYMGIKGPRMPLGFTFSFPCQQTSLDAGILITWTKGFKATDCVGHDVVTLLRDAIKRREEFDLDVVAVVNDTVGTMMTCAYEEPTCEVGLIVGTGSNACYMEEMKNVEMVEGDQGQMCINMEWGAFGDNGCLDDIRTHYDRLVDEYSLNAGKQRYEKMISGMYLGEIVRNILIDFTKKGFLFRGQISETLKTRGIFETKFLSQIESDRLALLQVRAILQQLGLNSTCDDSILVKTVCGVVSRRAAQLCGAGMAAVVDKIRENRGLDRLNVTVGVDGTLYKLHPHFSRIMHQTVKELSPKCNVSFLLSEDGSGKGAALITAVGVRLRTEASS

Hexokinase HKDC1 = biological target: T4, Hexokinase HKDC1 (Homo sapiens, UniProt Q2TB90); test: SAR analysis of small molecule inhibitors of hexokinase domain containing I (HKDC1). [Related pubchem assays (depositor defined):AID493160, AID493190]; assay type: functional
T4 sequence (Q2TB90 whole entry): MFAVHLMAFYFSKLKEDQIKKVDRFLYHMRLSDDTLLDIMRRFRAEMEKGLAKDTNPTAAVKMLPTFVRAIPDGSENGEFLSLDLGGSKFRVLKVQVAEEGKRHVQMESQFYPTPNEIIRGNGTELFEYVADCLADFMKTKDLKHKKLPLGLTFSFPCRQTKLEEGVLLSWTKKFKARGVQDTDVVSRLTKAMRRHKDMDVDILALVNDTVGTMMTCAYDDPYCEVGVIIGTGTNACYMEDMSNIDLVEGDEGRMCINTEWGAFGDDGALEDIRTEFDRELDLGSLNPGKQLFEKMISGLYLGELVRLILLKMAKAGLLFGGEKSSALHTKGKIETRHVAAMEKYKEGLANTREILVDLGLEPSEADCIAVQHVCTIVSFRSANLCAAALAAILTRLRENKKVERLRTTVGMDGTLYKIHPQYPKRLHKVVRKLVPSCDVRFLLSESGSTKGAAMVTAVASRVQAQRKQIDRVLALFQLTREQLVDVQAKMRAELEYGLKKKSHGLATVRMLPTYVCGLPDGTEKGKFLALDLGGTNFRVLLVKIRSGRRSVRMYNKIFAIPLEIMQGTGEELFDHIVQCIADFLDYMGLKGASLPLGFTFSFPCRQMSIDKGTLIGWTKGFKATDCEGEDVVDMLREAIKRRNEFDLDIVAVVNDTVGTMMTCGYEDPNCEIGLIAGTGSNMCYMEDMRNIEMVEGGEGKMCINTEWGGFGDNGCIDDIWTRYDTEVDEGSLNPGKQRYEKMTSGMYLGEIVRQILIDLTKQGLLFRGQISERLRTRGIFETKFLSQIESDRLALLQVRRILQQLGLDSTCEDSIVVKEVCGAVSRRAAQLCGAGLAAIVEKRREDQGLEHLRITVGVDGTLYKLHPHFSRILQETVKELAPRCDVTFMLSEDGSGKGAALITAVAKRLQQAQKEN

[5] = microbe, parasite or virus in culture; assay type: functional; conditions: Mycobacterium tuberculosis
CHO = test: cytotoxicity in TLR9-MyD88 CHO cells, dose response, cytotoxicity control for TLR9-MyD88 binding inhibitor project, cell-based, luminescence (AID 588339); assay type: functional, hamster; conditions: Cricetulus griseus;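 also: CHO cells stably coexpressing TLR9 and MyD88 fusions from primary screen; compound exposure lasted 48 hours before viability readout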
INS1 = test: beta cell apoptosis inhibitors, cytokine rescue, dose response, luminescence, retest (AID 449756); assay type: functional, cell-based; conditions: Rattus norvegicus;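 also: cell death triggered by IL-1 beta plus TNF-alpha plus IFN-gamma mixture; protective hits raise ATP signal compared with cytokine alone wells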
[6] = Shn3 3'UTR reporter inhibitors, dose response, cell-based, Clone20 osteoblasts, firefly luciferase, cherry-picked (AID 624132); assay type: functional;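 also: firefly luciferase luminescence from reporter carrying the Shn3 3'UTR in osteoblasts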
[7] = HepG2 cell cytotoxicity, dose response, cytotoxicity control for Shn3 inhibitor project, CellTiter-Glo, cherry-picked (AID 624134); assay type: functional, cell-based
[8] = control 3'UTR Renilla luciferase suppression, dose response, counter-screen for Shn3 inhibitor project, cell-based, Clone20-Shn3RL, cherry-picked (AID 624133); assay type: functional
[9] = biological target: Voltage-gated inwardly rectifying potassium channel KCNH2 (Homo sapiens, UniProt Q12809); conditions: Potency;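 also: confirmatory quantitative high-throughput screen measuring inhibition of hERG channel activity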
Sequence of Voltage-gated inwardly rectifying potassium channel KCNH2 (Q12809 whole entry): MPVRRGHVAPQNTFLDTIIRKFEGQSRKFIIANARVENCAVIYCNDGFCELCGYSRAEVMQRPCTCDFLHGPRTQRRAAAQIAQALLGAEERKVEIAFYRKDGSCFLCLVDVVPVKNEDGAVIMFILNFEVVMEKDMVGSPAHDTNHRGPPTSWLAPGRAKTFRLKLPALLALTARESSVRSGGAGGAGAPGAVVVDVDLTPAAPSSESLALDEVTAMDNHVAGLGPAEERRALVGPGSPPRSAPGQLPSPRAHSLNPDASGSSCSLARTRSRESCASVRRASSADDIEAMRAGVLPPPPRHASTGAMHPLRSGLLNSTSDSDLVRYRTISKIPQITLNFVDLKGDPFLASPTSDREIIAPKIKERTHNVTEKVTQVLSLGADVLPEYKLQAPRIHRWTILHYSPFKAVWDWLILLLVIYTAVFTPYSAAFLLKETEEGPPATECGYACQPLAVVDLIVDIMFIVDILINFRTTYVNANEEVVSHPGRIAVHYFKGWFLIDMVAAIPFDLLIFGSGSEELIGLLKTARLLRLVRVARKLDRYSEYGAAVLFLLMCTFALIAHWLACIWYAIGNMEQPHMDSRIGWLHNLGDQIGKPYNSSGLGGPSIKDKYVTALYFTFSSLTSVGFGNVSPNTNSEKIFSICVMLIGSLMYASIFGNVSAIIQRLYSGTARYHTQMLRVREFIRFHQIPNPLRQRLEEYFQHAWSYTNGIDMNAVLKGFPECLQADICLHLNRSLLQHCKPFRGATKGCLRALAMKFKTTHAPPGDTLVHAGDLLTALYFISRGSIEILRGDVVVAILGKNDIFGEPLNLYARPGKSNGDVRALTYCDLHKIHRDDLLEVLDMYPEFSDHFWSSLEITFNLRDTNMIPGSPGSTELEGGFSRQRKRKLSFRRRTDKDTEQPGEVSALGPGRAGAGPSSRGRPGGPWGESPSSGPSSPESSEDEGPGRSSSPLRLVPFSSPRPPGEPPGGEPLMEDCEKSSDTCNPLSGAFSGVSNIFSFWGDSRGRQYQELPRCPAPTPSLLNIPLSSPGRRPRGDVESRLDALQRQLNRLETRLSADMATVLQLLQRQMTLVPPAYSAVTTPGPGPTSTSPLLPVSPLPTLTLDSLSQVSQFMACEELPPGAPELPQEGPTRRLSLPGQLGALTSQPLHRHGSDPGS

[10] = biological target: Dual specificity protein phosphatase 3 (Homo sapiens, UniProt P51452); test: SAR VHR1 Fluorescent Assay for In Vitro dose response studies Set 2. [Related pubchem assays (depositor defined):AID1654, AID1661, AID1878]; assay type: functional
Sequence of Dual specificity protein phosphatase 3 (P51452 whole entry): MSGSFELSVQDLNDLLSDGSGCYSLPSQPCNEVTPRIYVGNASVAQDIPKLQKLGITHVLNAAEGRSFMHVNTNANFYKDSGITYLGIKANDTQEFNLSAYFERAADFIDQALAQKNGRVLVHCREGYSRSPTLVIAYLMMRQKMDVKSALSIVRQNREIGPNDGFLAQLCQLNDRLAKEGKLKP

[11] = biological target: T5, Dual specificity protein phosphatase 6 (Rattus norvegicus, UniProt Q64346); assay type: functional;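 also: confirmatory in vitro dose-response testing of MKP-3 inhibition; recombinant His-tagged MKP-3 made in E. coli BL21 with OMFP substrate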
T5 sequence (Q64346 whole entry): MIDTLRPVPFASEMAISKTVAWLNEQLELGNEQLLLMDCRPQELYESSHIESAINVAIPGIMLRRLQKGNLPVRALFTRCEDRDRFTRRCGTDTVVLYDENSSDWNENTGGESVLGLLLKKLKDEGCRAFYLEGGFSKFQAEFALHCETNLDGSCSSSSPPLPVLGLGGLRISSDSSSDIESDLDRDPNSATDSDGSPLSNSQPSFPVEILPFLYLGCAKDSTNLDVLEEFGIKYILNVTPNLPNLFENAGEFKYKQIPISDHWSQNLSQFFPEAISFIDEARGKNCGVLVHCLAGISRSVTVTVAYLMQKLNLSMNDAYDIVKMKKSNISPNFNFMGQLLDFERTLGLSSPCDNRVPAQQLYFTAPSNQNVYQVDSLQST

Candida albicans [12] = test: growth inhibition of resistant C. albicans, dose response, CaCi-8 strain, fluconazole, dry powder, set 4 (AID 488950); assay type: functional, organism-based
Candida albicans [13] = test: fluconazole resistance reversal in C. albicans, dose response, CaCi-2 strain, Alamar Blue, dry powder, set 4 (AID 488943); assay type: functional, organism-based
Candida albicans [14] = test: growth inhibition of azole-resistant C. albicans, dose response, CaCi-8 strain, Alamar Blue, dry powder, set 2 (AID 488909); assay type: functional, organism-based

## Clc1ccc(/N=c2\ssnc2Cl)cc1
[1]
  IC50: > 50 µM (not active)
[2]
  IC50: 12.5 µM (active)
Phosphomannomutase 2
  IC50: > 100 µM (inactive)
[3]
  IC50: 28.2 µM (active)
[4]
  AC50: 8.4 µM (active)

## N=C(NOC(=O)C12CC3CC(CC(C3)C1)C2)c1ccccn1
HeLa
  AC50: 27.5 µM (active)

## O=c1c2ccccc2nc(/C=C/c2cccnc2)n1Cc1cccc(Cl)c1
Hexokinase-1
  IC50: > 80 µM (inactive)
Hexokinase HKDC1
  IC50: > 80 µM (inactive)

## Cc1ccc(-n2c(Cl)c(Cl)nc(Cl)c2=O)cc1
[5]
  CC50: 39.1 µM (active)
CHO
  IC50: 1.39 µM (active)
[4]
  AC50: 1.38 µM (active)
INS1
  AC50: 4.43 µM (active)
[6]
  AC50: 1.77 µM (active)
[7]
  AC50: 8.89 µM (active)
[8]
  AC50: 3.58 µM (active)

## Cc1nn(-c2ccccc2)c(S)c1C=Nc1cccc([N+](=O)[O-])c1
[2]
  IC50: 31.1 µM (active)
Phosphomannomutase 2
  IC50: > 100 µM (inactive)

## Cc1ccccc1C(N)=O
[9]
  AC50: 35.5 µM (inconclusive)

## Cc1ccccc1N1C(=O)c2cc(S(N)(=O)=O)c(Cl)cc2NC1C (stereo not given) [METOLAZONE]
[9]
  AC50: 0.112 µM (inconclusive)

## COc1nc(C)ccc1-c1noc(-c2ccncc2)n1
HeLa
  AC50: 40 µM (active)

## NS(=O)(=O)c1cc(C(=O)NC2CCOc3ccccc32)ccc1Cl (stereo not given)
[10]
  IC50: > 100 µM (inactive)
[11]
  IC50: > 100 µM (inactive)

## Cc1cc(N2CCN(C(=O)c3ccc(Cl)cc3)CC2)c2ccc(F)cc2n1
Candida albicans [12]
  AC50: 14.4 µM (active)
Candida albicans [13]
  AC50: 15.8 µM (active)
Candida albicans [14]
  AC50: 49.3 µM (active)

From ChEMBL document CHEMBL1201862, “PubChem BioAssay data set” (2004)
